Results from patent US11072592B2, “Small molecules that enable cartilage rejuvenation” (The Regents of the University of California, priority 2015, dated 2021).
“Also recorded” adds a separate entry of the source.

Experiments:
[1] = test system: pSTAT3 and MYC; assay: Western blot of pSTAT3 and MYC in adult human articular chondrocytes; format: cell-based; details: for levels of MYC / levels of pSTAT3: adult human articular cartilage/chondrocytes, treated vs untreated, relative to histone H3
From the text: Only early passages of chondrocytes (passage 0-2) were used for experimentation to avoid de-differentiation and loss of cartilage phenotype (Wu et al., 2014). Cartilage explants were made using 1, 2 or 8 mm biopsy punch and wet weight of each explant determined prior to experimentation. For cell isolation cartilage tissue was digested as described previously (Wu et al., 2015). Postnatal paraffin embedded joint and growth plate specimens were kindly donated by Dr Marcel Karperien from the University of Twente (Netherlands) and Dr Nick Bernthal from University of California Los Angeles. All donated material was anonymous and carried no personal identifiers. Cell culture reagents were purchased from Life Technologies, Inc. (Grand Island, N.Y.). Growth factors LIF, OSM, IL-6, TNF-α, IL-1β were purchased from Life Technologies, Inc (Grand Island, N.Y.). STATTIC, 10058-F4, SCl44 hydrochloride, and CP-690550 were purchased from Sigma Aldrich (St. Louis, Mo.). RCGD 423 (N-(4-Bromophenyl)-4-phenyl-1,3-thiazol-2-amine) was synthesized and provided by MolPort (Riga, Latvia). Fetal, adult and pig chondrocytes were cultured in DMEM F12 medium containing 10% (vol/vol) fetal bovine serum and 1% Penicillin-Streptomycin (vol/vol) at 37° C. in a humidified atmosphere of 95% aid and 5% CO2. Media was replenished with DMEM F12 medium containing 1% (vol/vol) fetal bovine serum and 1% Penicillin-Streptomycin (vol/vol) once treatments were added. For 3-dimensional (3D) cell cultures adult human articular chondrocytes were incubated with or without RCGD 423 using 10% solution of Mebiol® hydrogel from Cosmo Bio (Carlsbad, Calif.) in X-vivo 15 serum free medium from Lonza (Walkersville, Md.) as described previously (Wu et al., 2014).
Treated and non-treated ells were lysed in RIPA Lysis and Extraction Buffer (Pierce, Rockford, Ill.) containing protease inhibitors (Pierce) followed by sonication with a 15-second pulse at a power output of 2 using the VirSonic 100 (SP Industries Company, Warminster, Pa.). Protein concentrations were determined by BCA protein assay (Pierce). Proteins were resolved with SDS-PAGE utilizing 4-15% Mini-PROTEAN TGX Precast Gels and transferred to Trans-Blot Turbo Transfer Packs with a 0.2-μm pore-size nitrocellulose membrane. The SDS-PAGE running buffer, 4-15% Mini-PROTEAN TGX Precast Gels, Trans-Blot Turbo Transfer Packs with a 0.2-μm pore-size nitrocellulose membrane were purchased from Biorad (Hercules, Calif.). Nitrocellulose membranes were blocked in 5% nonfat milk in 0.05% (v/v) Tween 20 (PBST) (Corning, Manassas, Va.). Membranes were then incubated with primary antibodies phospho-STAT3 (#9131), MYC (#5605), NF-κB p65 (#D14E12), pAKT (#9272) Histone 3 (#9715) from Cell Signaling, (Danvers, Mass.); MEK1/2 (ab70613) and p38 (ab795) from Abcam (Cambridge, Mass.) overnight. After washing in PBS containing 0.05% (v/v) Tween 20 (PBST), membranes were incubated with Goat anti-Rabbit IgG (H+L) Secondary Antibody (Thermo Scientific Rockford, Ill.). After washing, membranes were developed with the Clarity Western ECL Blotting Substrate (Hercules, Calif.).

[2] = test system: cartilage explants; assay: Cartilage explant culture: tissue expansion, COL2 and GAG content; format: cell-based, pig; details: for expansion of cartilage tissue in explants: cartilage explants/plugs in culture
From the text: The same stimulatory effect was achieved after treatment of explants with CRMs identified in our small molecule screen. […] This can test if activation of p-STAT3 and c-MYC by selected small molecules CRM-398 and -423 can result in in situ expansion of articular cartilage tissue.
Mature articular cartilage is comprised of chondrocytes contained within lacunae surrounded by dense extracellular matrix. In order for a regenerative response to occur, proliferation, survival and migration must all proceed in concert. […] We designed two sets of experiments to assess the ability of RCGD 423 to operate in this capacity. First, RCGD 423 or cytokines implicated in the growth and differentiation of articular cartilage were incubated with small plugs of cartilage tissue; after 5 weeks, the amount of COL2 and glycosaminoglycans (GAGs) were determined.
Cartilage explants were washed with PBS and then directly digested or stored at […]. For digestion, explants were transferred in digestion buffer composed of 1 mg/mL proteinase K in Tris/Ethylene diamine tetra-acetic acid (EDTA) buffer (pH 7.6) containing 18.5 μg/mL iodoacetamide and 1 μg/mL pepstatin A) for 16-72 h at 56° C. After complete digestion the GAG content was spectrophotometrically determined with 1,9-dimethylmethylene blue chloride staining in the phosphate buffer with ethylene diamine tetra-acetic acid buffer (14.2 g/L Na2HPO4 and 3.72 g/L Na2EDTA, pH 6.5) using an Infinite M1000 Pro microplate reader (Tecan) at an absorbance of 520 nm with chondroitin sulfate as a standard. Amount of total DNA in explants was determined by a CyQuant DNA Kit (Molecular Probes by Life Technology) using Qubit 1.0 fluorometer (Invitrogen).
Cultured explants were first digested in testicular hyaluronidase (0.05% in 50 mM HEPES) for 2 hours at 37° C. 0.5M glacial acetic acid was added to digestion solution to maximize the collagen swelling and provide best pepsin access. Pepsin (250 μg/ml) was then used to further digest the pellets in combination with rotation and occasional gentle vortexing at 4° C. for 18-24 hours. Cold tris base and NaOH were added to the digestion solution to neutralize the acetic acid. Digestion solution was vigorously vortexed immediately, and subsequently rotated at 4° C. overnight to maximize collagen solubility. Tubes were centrifuged to separate undigested tissue and supernatant. Any undigested tissue was subjected to the digestion process again. All supernatants were combined for ELISA. Concentration of collagen II in the supernatant was measured by Type I/II Collagen Detection Kit (Chondrex, Inc, Redmond, Wash.), according to manufacturer's instruction and normalized either to DNA content or wet weight of the explants determined prior to experimentation.

[3] = 48 hours after withdrawal (data not shown)
[4] = human adult articular chondrocytes, 1 μM

Row | Compound | levels of MYC [1] | levels of pSTAT3 [1] | expansion of cartilage tissue in explants [2] | specificity and selectivity of effect for p-STAT3 and c-MYC [1] | protein level of c-MYC after withdrawal [1, 3] | protein level of p-STAT-3 after withdrawal [1, 3] | levels of c-MYC [1, 4] | levels of p-STAT3 [1, 4] | COL2 ([2]; after 5 weeks) | glycosaminoglycans (GAGs) ([2]; after 5 weeks)
1 | LIF: interleukin 6 (IL-6)-class cytokine | large increases; also recorded: robustly increased | large increases; also recorded: robustly increased | significant expansion; also recorded: small expansions |  |  |  |  |  |  | 
2 | Brc1ccc(Nc2nc(-c3ccccc3)cs2)cc1 [RCGD 423, N-(4-Bromophenyl)-4-phenyl-1,3-thiazol-2-amine] | robustly increased | robustly increased | strong expansion | highly specific and selective | decreased | decreased | elevated | elevated | increases | increases
